Source: DBAASP
Values after ≈ are worked out from the molar mass of the structure shown. Values joined by “and” are separate entries in the source; they are usually repeats but may differ in a detail not shown here. Equal entries are not always repeated. Blank lines part the entries; values can stand above or below the compound they belong to.

Tests used:
Test in all cases: ≥ marks a high value that may be exact or a test limit, other limits are often not marked, values filed in µg/mL are converted to µM
[1] = test system: Escherichia coli DH5alpha
[2] = test system: Escherichia coli ATCC 10536
[3] = test system: Bacillus subtilis ATCC 6633
[4] = test system: Staphylococcus aureus ATCC 9144
[5] = test system: Staphylococcus aureus M838-17
[6] = test system: Klebsiella pneumoniae E406-17
[7] = test system: Enterococcus faecium V286-17
[8] = test system: Pseudomonas aeruginosa PAO1
[9] = test system: Staphylococcus aureus JE2
[10] = test system: Escherichia coli ATCC 25922
[11] = test system: Staphylococcus aureus USA 300
[12] = test system: Pseudomonas aeruginosa E411-17
[13] = test system: Klebsiella pneumoniae ATCC 13883
Escherichia coli E416-7 = test system: Escherichia coli E416-7
Vibrio parahaemolyticus = test system: Vibrio parahaemolyticus
Vibrio alginolyticus = test system: Vibrio alginolyticus
Escherichia coli = test system: Escherichia coli
Cryptococcus neoformans = test system: Cryptococcus neoformans
[14] = test system: Staphylococcus epidermidis
Bacillus cereus = test system: Bacillus cereus
Candida albicans = test system: Candida albicans
Staphylococcus aureus = test system: Staphylococcus aureus
Aeromonas hydrophila = test system: Aeromonas hydrophila
[15] = test system: Corynebacterium glutamicum
Shigella flexneri = test system: Shigella flexneri
Pseudomonas aeruginosa = test system: Pseudomonas aeruginosa
Bacillus subtilis = test system: Bacillus subtilis
Bacillus subtilis 168 HT = test system: Bacillus subtilis 168 HT
Escherichia coli MG1655 = test system: Escherichia coli MG1655
[16] = test system: Staphylococcus aureus ATCC 25923
[17] = test system: Pseudomonas aeruginosa Z61
[18] = test system: Pseudomonas aeruginosa H374
[19] = test system: Pseudomonas aeruginosa K799
[20] = test system: Burkholderia cepacia ATCC 25416
[21] = test system: Pseudomonas aeruginosa H744
[22] = test system: Pseudomonas aeruginosa H547
[23] = test system: Escherichia coli DSM 1103
[24] = test system: Salmonella enterica subsp. enterica serovar Typhimurium ATCC 14028s
[25] = test system: Klebsiella pneumoniae DSM 681
[26] = test system: Pseudomonas aeruginosa DSM 1128
Escherichia coli UB1005 = test system: Escherichia coli UB1005
[27] = test system: Streptococcus pneumoniae DSM 11865
Sporothrix schenckii = test system: Sporothrix schenckii
[28] = test system: Escherichia coli ATCC 9637
[29] = test system: Klebsiella pneumoniae ATCC 27736
[30] = test system: Pseudomonas aeruginosa ATCC BAA-427
[31] = test system: Trichophyton mentagrophytes
Aspergillus fumigatus = test system: Aspergillus fumigatus
[32] = test system: Candida parapsilosis ATCC 22019

MIC (Bacillus subtilis 168 HT): 9.4 µM (≈ 16 µg/mL)
MIC (Escherichia coli MG1655): ≥ 37.6 µM
Compound: CC[C@H](C)[C@H](N)C(=O)N[C@@H](CO)C(=O)N[C@@H](CCCN=C(N)N)C(=O)N[C@@H](C)C(=O)N[C@@H](CS)C(=O)N[C@@H](CC(C)C)C(=O)N[C@H](C(=O)N[C@@H](CCSC)C(=O)N[C@@H](CCCCN)C(=O)N[C@H](C(=O)N[C@@H](CCCN=C(N)N)C(=O)N[C@@H](CCCN=C(N)N)C(=O)N[C@@H](CCCCN)C(=O)N[C@@H](CCCCN)C(=O)O)C(C)C)[C@@H](C)CC [ISRACLIMKVRRKK]

MIC [16]: 2.04 µM (≈ 6.25 µg/mL)
MIC [17]: 0.652 µM (≈ 2 µg/mL)
MIC [18]: 0.652 µM (≈ 2 µg/mL)
MIC [19]: 0.979 µM (≈ 3 µg/mL)
MIC [20]: 20.9 µM (≈ 64 µg/mL)
MIC [21]: 0.652 µM (≈ 2 µg/mL)
MIC [22]: 1.3 µM (≈ 4 µg/mL)
MIC [23]: 2.04 µM (≈ 6.25 µg/mL)
MIC [24]: 0.979 µM (≈ 3 µg/mL)
MIC [25]: 2.04 µM (≈ 6.25 µg/mL)
MIC [26]: 1.02 µM (≈ 3.13 µg/mL)
MIC (Escherichia coli UB1005): 0.652 µM (≈ 2 µg/mL)
MIC [27]: 2.04 µM (≈ 6.25 µg/mL)
Compound: CC[C@H](C)[C@H](NC(=O)CNC(=O)[C@@H](NC(=O)[C@H](CCCCN)NC(=O)[C@H](CCCCN)NC(=O)[C@H](Cc1ccccc1)NC(=O)[C@H](CC(C)C)NC(=O)[C@H](CCCCN)NC(=O)[C@H](Cc1c[nH]c2ccccc12)NC(=O)[C@@H](N)CCCCN)[C@@H](C)CC)C(=O)NCC(=O)N[C@@H](C)C(=O)N[C@H](C(=O)N[C@@H](CC(C)C)C(=O)N[C@@H](CCCCN)C(=O)N[C@H](C(=O)N[C@@H](CC(C)C)C(=O)N[C@H](C(=O)N[C@H](C(=O)NCC(=O)N[C@@H](CC(C)C)C(=O)N1CCC[C@H]1C(=O)N[C@@H](C)C(=O)N[C@@H](CC(C)C)C(=O)N[C@@H](CCCCN)C(=O)N[C@@H](CC(C)C)C(=O)N[C@H](C(=O)N[C@@H](CCCCN)C(=O)O)[C@@H](C)O)[C@@H](C)O)[C@@H](C)O)C(C)C)C(C)C [KWKLFKKIGIGAVLKVLTTGLPALKLTK]

MIC (Sporothrix schenckii): 6.76 µM (≈ 12.5 µg/mL)
MIC [16]: 1.7 µM (≈ 3.15 µg/mL)
MIC [28]: 13.5 µM (≈ 25 µg/mL)
MIC [29]: 3.38 µM (≈ 6.25 µg/mL)
MIC [30]: 13.5 µM (≈ 25 µg/mL)
MIC (Bacillus cereus): 1.7 µM (≈ 3.15 µg/mL)
MIC [31]: ≥ 54 µM
MIC (Aspergillus fumigatus): 27 µM (≈ 50 µg/mL)
MIC [32]: 6.76 µM (≈ 12.5 µg/mL)
Compound: CC(C)C[C@H](NC(=O)[C@H](CC(C)C)NC(=O)[C@H](CCCN=C(N)N)NC(=O)[C@H](CCCN=C(N)N)NC(=O)[C@H](C)NC(=O)[C@H](Cc1c[nH]c2ccccc12)NC(=O)[C@H](CCCN=C(N)N)NC(=O)[C@H](C)NC(=O)[C@H](C)NC(=O)[C@H](CCCN=C(N)N)NC(=O)[C@H](CCCN=C(N)N)NC(=O)[C@@H](N)CC(C)C)C(=O)N[C@@H](CCCN=C(N)N)C(=O)N[C@@H](CCCN=C(N)N)C(=O)O [LRRAARWARRLLRR]

Second part, the compound before the results:

Compound: CC[C@H](C)[C@H](NC(=O)CN)C(=O)NCC(=O)N[C@@H](C)C(=O)N[C@H](C(=O)N[C@@H](CC(C)C)C(=O)N[C@@H](CCCCN)C(=O)N[C@H](C(=O)N[C@@H](C)C(=O)N[C@H](C(=O)N[C@H](C(=O)NCC(=O)N[C@@H](C)C(=O)N1CCC[C@H]1C(=O)N[C@@H](C)C(=O)N[C@@H](CC(C)C)C(=O)N[C@H](C(=O)N[C@@H](CO)C(=O)N[C@@H](Cc1c[nH]c2ccccc12)C(=O)N[C@H](C(=O)N[C@@H](CCCCN)C(=O)N[C@@H](CCCN=C(N)N)C(=O)N[C@@H](CCCCN)C(=O)N[C@@H](CCCN=C(N)N)C(=O)N[C@@H](CCC(N)=O)C(=O)N[C@@H](CCC(N)=O)C(N)=O)[C@@H](C)CC)[C@@H](C)CC)[C@@H](C)O)[C@@H](C)O)C(C)C)C(C)C [GIGAVLKVATTGAPALISWIKRKRQQ]
MIC [1]: 4.3 µM (≈ 11.9 µg/mL)
MIC [2]: 4.5 µM (≈ 12.4 µg/mL)
MIC [3]: 20 µM (≈ 55.2 µg/mL)
MIC [4]: 20 µM (≈ 55.2 µg/mL)

Compound: CC(C)C[C@H](NC(=O)[C@H](CC(C)C)NC(=O)[C@H](CCCCN)NC(=O)[C@H](CC(C)C)NC(=O)CNC(=O)[C@H](CC(C)C)NC(=O)[C@H](CO)NC(=O)[C@H](CC(C)C)NC(=O)[C@H](CC(C)C)NC(=O)[C@H](CC(C)C)NC(=O)[C@H](CCCCN)NC(=O)[C@H](CC(C)C)NC(=O)CN)C(N)=O [GLKLLLSLGLKLL]
MIC [5]: 2.25 µM (≈ 3.1 µg/mL)
MIC [6]: ≥ 50 µM
MIC [7]: 4.4 µM (≈ 6.07 µg/mL)
MIC [8]: > 25 µM
MIC [9]: 1.13 µM (≈ 1.56 µg/mL)
MIC [10]: > 25 µM
MIC [11]: 1.6 µM and 3.1 µM and 4.4 µM
MIC [12]: ≥ 50 µM
MIC [13]: 25 µM (≈ 34.5 µg/mL)
MIC (Escherichia coli E416-7): ≥ 50 µM

Compound: CC[C@H](C)[C@H](NC(=O)[C@H](CC(C)C)NC(=O)[C@H](CCC(=O)O)NC(=O)[C@@H]1CCCN1C(=O)[C@H](CC(C)C)NC(=O)[C@H](Cc1cnc[nH]1)NC(=O)[C@@H](NC(=O)[C@H](CCCCN)NC(=O)[C@@H](NC(=O)[C@H](Cc1ccccc1)NC(=O)[C@H](CCCCN)NC(=O)[C@H](CCCN=C(N)N)NC(=O)[C@H](CS)NC(=O)[C@H](CC(C)C)NC(=O)[C@H](CO)NC(=O)[C@H](CCCCN)NC(=O)[C@H](CC(C)C)NC(=O)[C@H](CC(C)C)NC(=O)CN)C(C)C)C(C)C)C(=O)N[C@@H](CCC(=O)O)C(=O)N[C@@H](CCC(=O)O)C(=O)N[C@@H](CC(C)C)C(=O)N[C@H](C(=O)N[C@H](C(=O)N[C@H](C(=O)N[C@@H](CC(=O)O)C(=O)O)[C@@H](C)O)[C@@H](C)O)[C@@H](C)O [GLLKSLCRKFVKVHLPELIEELTTTD]
MIC (Vibrio parahaemolyticus): ≥ 50 µM
MIC (Vibrio alginolyticus): ≥ 50 µM
MIC (Escherichia coli): 35.4 µM (≈ 105 µg/mL)
MIC (Cryptococcus neoformans): ≥ 50 µM
MIC [14]: ≥ 50 µM
MIC (Bacillus cereus): ≥ 50 µM
MIC (Candida albicans): > 50 µM
MIC (Staphylococcus aureus): > 50 µM
MIC (Aeromonas hydrophila): ≥ 50 µM
MIC [15]: 8.84 µM (≈ 26.4 µg/mL)
MIC (Shigella flexneri): ≥ 50 µM
MIC (Pseudomonas aeruginosa): > 50 µM
MIC (Bacillus subtilis): ≥ 50 µM
